Patent US20050060764A1, “Mouse model for bone metabolism” (priority 2003, published 2005)
Strand notation (5' to 3'): a small letter for the sugar, then the base; units joined by * are phosphorothioate-linked, units joined directly phosphodiester-linked; [ ] holds rarer units or linkages, { } end groups; capitals alone tell only the bases. e = 2'-O-(2-methoxyethyl) (MOE); [5mC] = 5-methylcytosine; d = 2'-deoxy (DNA)

System: rat RANKL mRNA
Test: Antisense inhibition of rat RANKL mRNA levels in UMR-106 cells, quantitative real-time PCR (Table 3)
Assay type: cell-based
Set-up: concentration or dose not given beside the values
Conditions: averages from three experiments
Procedure: Cells were seeded onto 24-well plates (Falcon-353047) at a density of […] for use in antisense oligonucleotide transfection.
Cells are treated and data are obtained in triplicate. […] Cells were harvested 16-24 hours after oligonucleotide treatment.
PCR reagents were obtained from Invitrogen Corporation, (Carlsbad, Calif.).
Probes and primers to rat RANKL were designed to hybridize to a rat RANKL sequence, using published sequence information (GenBank accession number NM_057149.1, incorporated herein as SEQ ID NO:18). For rat RANKL the PCR primers were: • forward primer: […] (SEQ ID NO:19) • reverse primer: […] (SEQ ID NO: 20) and the • PCR probe was: FAM-[…]-TAMRA (SEQ ID NO: 21) where FAM is the fluorescent reporter dye and TAMRA is the quencher dye. For rat GAPDH the PCR primers were: • forward primer: […](SEQ ID NO:22) • reverse primer: […](SEQ ID NO:23) and the • PCR probe was: 5′ JOE-[…]-TAMRA 3′ (SEQ ID NO: 24) where JOE is the fluorescent reporter dye and TAMRA is the quencher dye.
In accordance with the present invention, a second series of antisense compounds was designed to target different regions of the rat RANKL RNA, using published sequences (GenBank accession number NM_057149.1, incorporated herein as SEQ ID NO: 18, and GenBank accession number AF425669.1, incorporated herein as SEQ ID NO: 200). […] All cytidine residues are 5-methylcytidines. […] If present, “N.D.” indicates “no data”.

| Substance | % INHIB (inhibition of rat RANKL mRNA levels) |
| --- | --- |
| aacctgtattttcacggagt (eA*eA*e[5mC]*e[5mC]*eT*dG*dT*dA*dT*dT*dT*dT*d[5mC]*dA*d[5mC]*eG*eG*eA*eG*eT; antisense) [ISIS 286602, 2′-MOE gapmer targeted to rat RANKL] | at least 40% |
| acagagcgatgctgcagacc (antisense eA*e[5mC]*eA*eG*eA*dG*d[5mC]*dG*dA*dT*dG*d[5mC]*dT*dG*d[5mC]*eA*eG*eA*e[5mC]*e[5mC]) [ISIS 286589, 2′-MOE gapmer targeted to rat RANKL] | at least 40% |
| accatcagctgaagatagtc (eA*e[5mC]*e[5mC]*eA*eT*d[5mC]*dA*dG*d[5mC]*dT*dG*dA*dA*dG*dA*eT*eA*eG*eT*e[5mC]; antisense) [ISIS 286629, 2′-MOE gapmer targeted to rat RANKL] | at least 40% |
| acccttagttttccgttgct (eA*e[5mC]*e[5mC]*e[5mC]*eT*dT*dA*dG*dT*dT*dT*dT*d[5mC]*d[5mC]*dG*eT*eT*eG*e[5mC]*eT; antisense) [ISIS 286618, 2′-MOE gapmer targeted to rat RANKL] | at least 40% |
| acttatttgcaggttccagc (eA*e[5mC]*eT*eT*eA*dT*dT*dT*dG*d[5mC]*dA*dG*dG*dT*dT*e[5mC]*e[5mC]*eA*eG*e[5mC]; antisense) [ISIS 286654, 2′-MOE gapmer targeted to rat RANKL] | at least 40% |
| agaggacagactgactttat (eA*eG*eA*eG*eG*dA*d[5mC]*dA*dG*dA*d[5mC]*dT*dG*dA*d[5mC]*eT*eT*eT*eA*eT; antisense) [ISIS 286611, 2′-MOE gapmer targeted to rat RANKL] | at least 40% |
| aggttctcagtggcacaggc (eA*eG*eG*eT*eT*d[5mC]*dT*d[5mC]*dA*dG*dT*dG*dG*d[5mC]*dA*e[5mC]*eA*eG*eG*e[5mC]; antisense) [ISIS 286651, 2′-MOE gapmer targeted to rat RANKL] | at least 40% |
| agtcgagtcctgcaaacctg (eA*eG*eT*e[5mC]*eG*dA*dG*dT*d[5mC]*d[5mC]*dT*dG*d[5mC]*dA*dA*eA*e[5mC]*e[5mC]*eT*eG; antisense) [ISIS 286603, 2′-MOE gapmer targeted to rat RANKL] | at least 40% |
| agttttccgttgcttaacgt (eA*eG*eT*eT*eT*dT*d[5mC]*d[5mC]*dG*dT*dT*dG*d[5mC]*dT*dT*eA*eA*e[5mC]*eG*eT; antisense) [ISIS 286617, 2′-MOE gapmer targeted to rat RANKL] | at least 40% |
| atcttggcccagcctcgatc (eA*eT*e[5mC]*eT*eT*dG*dG*d[5mC]*d[5mC]*d[5mC]*dA*dG*d[5mC]*d[5mC]*dT*e[5mC]*eG*eA*eT*e[5mC]; antisense) [ISIS 286614, 2′-MOE gapmer targeted to rat RANKL] | at least 40% |
| atcttggttaacccttagtt (eA*eT*e[5mC]*eT*eT*dG*dG*dT*dT*dA*dA*d[5mC]*d[5mC]*d[5mC]*dT*eT*eA*eG*eT*eT; antisense) [ISIS 286620, 2′-MOE gapmer targeted to rat RANKL] | at least 40% |
| caggaacagagcgatgctgc (e[5mC]*eA*eG*eG*eA*dA*d[5mC]*dA*dG*dA*dG*d[5mC]*dG*dA*dT*eG*e[5mC]*eT*eG*e[5mC]; antisense) [ISIS 286590, 2′-MOE gapmer targeted to rat RANKL] | at least 40% |
| ccattgtgtgatcaccatga (e[5mC]*e[5mC]*eA*eT*eT*dG*dT*dG*dT*dG*dA*dT*d[5mC]*dA*d[5mC]*e[5mC]*eA*eT*eG*eA; antisense) [ISIS 286648, 2′-MOE gapmer targeted to rat RANKL] | at least 40% |
| cccaaagtacgtcgcatctt (e[5mC]*e[5mC]*e[5mC]*eA*eA*dA*dG*dT*dA*d[5mC]*dG*dT*d[5mC]*dG*d[5mC]*eA*eT*e[5mC]*eT*eT; antisense) [ISIS 286639, 2′-MOE gapmer targeted to rat RANKL] | at least 40% |
| cgcgtgctgtcttctgatat (e[5mC]*eG*e[5mC]*eG*eT*dG*d[5mC]*dT*dG*dT*d[5mC]*dT*dT*d[5mC]*dT*eG*eA*eT*eA*eT; antisense) [ISIS 286599, 2′-MOE gapmer targeted to rat RANKL] | at least 40% |
| ctctgcaatgtaacggtacc (e[5mC]*eT*e[5mC]*eT*eG*d[5mC]*dA*dA*dT*dG*dT*dA*dA*d[5mC]*dG*eG*eT*eA*e[5mC]*e[5mC]; antisense) [ISIS 286652, 2′-MOE gapmer targeted to rat RANKL] | at least 40% |
| ctgcgctcgaaagtacagga (e[5mC]*eT*eG*e[5mC]*eG*d[5mC]*dT*d[5mC]*dG*dA*dA*dA*dG*dT*dA*e[5mC]*eA*eG*eG*eA; antisense) [ISIS 286593, 2′-MOE gapmer targeted to rat RANKL] | at least 40% |
| cttagtagtcttacacatgt (e[5mC]*eT*eT*eA*eG*dT*dA*dG*dT*d[5mC]*dT*dT*dA*d[5mC]*dA*e[5mC]*eA*eT*eG*eT; antisense) [ISIS 286645, 2′-MOE gapmer targeted to rat RANKL] | at least 40% |
| cttgggattttgatgctggt (e[5mC]*eT*eT*eG*eG*dG*dA*dT*dT*dT*dT*dG*dA*dT*dG*e[5mC]*eT*eG*eG*eT; antisense) [ISIS 286632, 2′-MOE gapmer targeted to rat RANKL] | at least 40% |
| ctttgaaagccccaaagtac (e[5mC]*eT*eT*eT*eG*dA*dA*dA*dG*d[5mC]*d[5mC]*d[5mC]*d[5mC]*dA*dA*eA*eG*eT*eA*e[5mC]; antisense) [ISIS 286641, 2′-MOE gapmer targeted to rat RANKL] | at least 40% |
| gacctgtacagggtcgagag (eG*eA*e[5mC]*e[5mC]*eT*dG*dT*dA*d[5mC]*dA*dG*dG*dG*dT*d[5mC]*eG*eA*eG*eA*eG; antisense) [ISIS 286647, 2′-MOE gapmer targeted to rat RANKL] | at least 40% |
| gatattctgttaggatccat (eG*eA*eT*eA*eT*dT*d[5mC]*dT*dG*dT*dT*dA*dG*dG*dA*eT*e[5mC]*e[5mC]*eA*eT; antisense) [ISIS 286597, 2′-MOE gapmer targeted to rat RANKL] | at least 40% |
| gcaaatgttggcgtacaggt (eG*e[5mC]*eA*eA*eA*dT*dG*dT*dT*dG*dG*d[5mC]*dG*dT*dA*e[5mC]*eA*eG*eG*eT; antisense) [ISIS 286627, 2′-MOE gapmer targeted to rat RANKL] | at least 40% |
| gcatatccatgctaaggctc (eG*e[5mC]*eA*eT*eA*dT*d[5mC]*d[5mC]*dA*dT*dG*d[5mC]*dT*dA*dA*eG*eG*e[5mC]*eT*e[5mC]; antisense) [ISIS 286643, 2′-MOE gapmer targeted to rat RANKL] | at least 40% |
| gcgatgctgcagaccacctg (antisense eG*e[5mC]*eG*eA*eT*dG*d[5mC]*dT*dG*d[5mC]*dA*dG*dA*d[5mC]*d[5mC]*eA*e[5mC]*e[5mC]*eT*eG) [ISIS 286588, 2′-MOE gapmer targeted to rat RANKL] | at least 40% |
| gcgcaggtacttgccgtagt (antisense eG*e[5mC]*eG*e[5mC]*eA*dG*dG*dT*dA*d[5mC]*dT*dT*dG*d[5mC]*d[5mC]*eG*eT*eA*eG*eT) [ISIS 286587, 2′-MOE gapmer targeted to rat RANKL] | at least 40% |
| gcgtacaggtaatagaagcc (eG*e[5mC]*eG*eT*eA*d[5mC]*dA*dG*dG*dT*dA*dA*dT*dA*dG*eA*eA*eG*e[5mC]*e[5mC]; antisense) [ISIS 286625, 2′-MOE gapmer targeted to rat RANKL] | at least 40% |
| ggtacttgccgtagtctcgg (antisense eG*eG*eT*eA*e[5mC]*dT*dT*dG*d[5mC]*d[5mC]*dG*dT*dA*dG*dT*e[5mC]*eT*e[5mC]*eG*eG) [ISIS 286586, 2′-MOE gapmer targeted to rat RANKL] | at least 40% |
| ggttaacccttagttttccg (eG*eG*eT*eT*eA*dA*d[5mC]*d[5mC]*d[5mC]*dT*dT*dA*dG*dT*dT*eT*eT*e[5mC]*e[5mC]*eG; antisense) [ISIS 286619, 2′-MOE gapmer targeted to rat RANKL] | at least 40% |
| gtcttacacatgtatctaca (eG*eT*e[5mC]*eT*eT*dA*d[5mC]*dA*d[5mC]*dA*dT*dG*dT*dA*dT*e[5mC]*eT*eA*e[5mC]*eA; antisense) [ISIS 286644, 2′-MOE gapmer targeted to rat RANKL] | at least 40% |
